How the values were obtained:
[1] = tested on: olfactory receptor car-b85; assay: Odor response of olfactory cell expressing olfactory receptor car-b85 (fura-2 calcium fluorescence); format: cell-based, mouse; details: car-b85, odor quality Mint; for Response at 1 μM: responders at 1 μM with rank order; for Response at 10 μM: responders at 10 μM
Source text: It is reported that, in mice, the olfactory receptor is expressed is olfactory cells and detects and identifies odor molecules (Cell 96: 713-723 (1999) and the like). It is reported that there are four zones indicated by No. 1 to 4 in order from the dorsum to the ventral olfactory epithelium wherein olfactory cells are distributed and each olfactory receptor is limitedly expressed in any one of the four zones (Science 286 (5440): 706-711 (1999) and the like). As it is estimated by gene analysis estimates that there are about 1,000 types of olfactory receptors, the responsiveness to specific odor molecules of the olfactory cells sampled in statistically significant number from the four zones is equivalent. Therefore, in the present invention, the responsiveness of 2,740 olfactory cells, about 2.7 times as many as 1,000 specific types of cells, was investigated. It cannot be declared that the statistical significance is maintained for all zones, as the number of types of olfactory receptor included in each zone is not clear. […] Respectively, 2, 2, 1 and 1 type(s) of genes identified by RT-PCR determined from a single cell among such olfactory cells were found and described in the present invention. The olfactory epithelium was quickly excised from a mouse euthanized by decapitation under anesthesia and divided into small pieces. These pieces were trypsinized to cleave intercellular junctions, and a sample of viable multiple mouse olfactory cells isolated from cells adhered to a cover slip by softly putting the treated pieces onto the cover slip taking care not to rupture them. Calcium-sensitive fluorescent dye fura-2 was intracellularly loaded on the sample, a solution of each odor molecule was administered, and the transient increase in intracellular calcium concentration triggered by the olfactory cells responding was detected by measuring and analysing the change in fura-2 fluorescence intensity within the cell using a microscope (Nikon), high-sensitive SIT video camera and image analysis device Argus-50 (Hamamatsu Photonics for both of the latter two), allowing the analysis individual cells response to specific odor molecules. […] The olfactory receptors with high sensitivity to specific odor qualities are shown as follows.

olfactory cells = assay: Responsiveness of 2,740 isolated olfactory cells to odor molecules (fura-2 calcium fluorescence); format: cell-based, mouse; details: for number of olfactory cells responding, with higher sensitivity than others and to the same extent, to both pulegone and (−)menthone / number of olfactory cells responding, with the highest sensitivity and to the same extent, to both R(−)carvone and S(+)carvone / number of olfactory cells sensitively and selectively responding: of 2,740 olfactory cells investigated
Source text: (§1) It is reported that, in mice, the olfactory receptor is expressed is olfactory cells and detects and identifies odor molecules (Cell 96: 713-723 (1999) and the like). It is reported that there are four zones indicated by No. 1 to 4 in order from the dorsum to the ventral olfactory epithelium wherein olfactory cells are distributed and each olfactory receptor is limitedly expressed in any one of the four zones (Science 286 (5440): 706-711 (1999) and the like). As it is estimated by gene analysis estimates that there are about 1,000 types of olfactory receptors, the responsiveness to specific odor molecules of the olfactory cells sampled in statistically significant number from the four zones is equivalent. Therefore, in the present invention, the responsiveness of 2,740 olfactory cells, about 2.7 times as many as 1,000 specific types of cells, was investigated. It cannot be declared that the statistical significance is maintained for all zones, as the number of types of olfactory receptor included in each zone is not clear. […] As a result, 4 olfactory cells sensitively and selectively responding to R(−)carvone of spearmint odor of a typical olfactory source, 18 olfactory cells sensitively and selectively responding to S(+)carvone of caraway odor of another typical olfactory source, 3 olfactory cells responding, with higher sensitivity than others and to the same extent, to both pulegone and (−)menthone commonly having mint odor of another typical olfactory source, and 3 olfactory cells responding, with the highest sensitivity and to the same extent, to both R(−)carvone and S(+)carvone commonly having sweet odor of another typical olfactory source were found. Respectively, 2, 2, 1 and 1 type(s) of genes identified by RT-PCR determined from a single cell among such olfactory cells were found and described in the present invention.
The olfactory epithelium was quickly excised from a mouse euthanized by decapitation under anesthesia and divided into small pieces. These pieces were trypsinized to cleave intercellular junctions, and a sample of viable multiple mouse olfactory cells isolated from cells adhered to a cover slip by softly putting the treated pieces onto the cover slip taking care not to rupture them. Calcium-sensitive fluorescent dye fura-2 was intracellularly loaded on the sample, a solution of each odor molecule was administered, and the transient increase in intracellular calcium concentration triggered by the olfactory cells responding was detected by measuring and analysing the change in fura-2 fluorescence intensity within the cell using a microscope (Nikon), high-sensitive SIT video camera and image analysis device Argus-50 (Hamamatsu Photonics for both of the latter two), allowing the analysis individual cells response to specific odor molecules. Olfactory cell with a confirmed response were individually sampled with a micropipette containing 4 μl of cell lysis mix (1×MMLV buffer (GIBCO BRL), 0.5% NP-40, 290 U/ml RNA guard (Pharmacia), 300 U/ml Prime RNase inhibitor (Eppendorf), 10 μM each dNTP, 200 ng/ml pd(T)25-30) under microscopy and moved into a tube for PCR. After the tube was incubated at 65° C. for 1 minute, 0.5 μl of RT mixed solution containing 50 U of MMLV reverse transcriptase (GIBCO BRL) and 0.5 U of AMV reverse transcriptase (GIBCO BRL) was added to each tube, followed by reverse-transcription at 37° C. for 30 minutes and treatment at 65° C. for 10 minutes prior to the termination of reaction. To form polyA tails, 5 μl of 2×TdT buffer (GIBCO BRL), 1.5 mM DATP, and 3 U/μl Terminal deoxynucleotidyl transferase (GIBCO BRL) were added, followed by incubation at 37° C. for 15 minutes and treatment at 65° C. for 10 minutes prior to the termination of reaction. […]

olfactory receptor C257 = assay: Response characteristics of olfactory receptor C257 expressed in cultured cell CHO; format: cell-based; details: sensitivity one order of magnitude lower than in olfactory receptor cell (FIG. 16)
Source text: Next, in this Example, response characteristics of olfactory receptor C257 were studied. A) is the case wherein it is expressed in olfactory receptor cell, and B) is the case wherein it is expressed in cell established and cultured cell CHO. […] However, response to sCa was not apparent (FIG. 16). […] Regarding discrimination, characteristics of the olfactory receptor can be considered to be expressed, independent of the cell type. However, regarding sensitivity and response starting time, they are change with regards to all odor molecules depending on the cell type. Therefore, it is necessary to evaluate the stimulation quality, paying attention to this point.

[2] = tested on: olfactory receptor car-n266; assay: Odor response of olfactory cell expressing olfactory receptor car-n266 (fura-2 calcium fluorescence); format: cell-based, mouse; details: car-n266, Sweet odor; for Response at 1 μM: responders at 1 μM; for Response at 10 μM: responders at 10 μM
Source text: as §1
(§2) The olfactory epithelium was quickly excised from a mouse euthanized by decapitation under anesthesia and divided into small pieces. […] Calcium-sensitive fluorescent dye fura-2 was intracellularly loaded on the sample, a solution of each odor molecule was administered, and the transient increase in intracellular calcium concentration triggered by the olfactory cells responding was detected by measuring and analysing the change in fura-2 fluorescence intensity within the cell using a microscope (Nikon), high-sensitive SIT video camera and image analysis device Argus-50 (Hamamatsu Photonics for both of the latter two), allowing the analysis individual cells response to specific odor molecules. […]

[3] = tested on: olfactory receptor car-n272; assay: Odor response of olfactory cell expressing olfactory receptor car-n272 (fura-2 calcium fluorescence); format: cell-based, mouse; details: car-n272, odor quality Spearmint; for Response at 10 μM: odor molecules listed are those giving a response at 10 μM
Source text: (§3) It is reported that, in mice, the olfactory receptor is expressed is olfactory cells and detects and identifies odor molecules (Cell 96: 713-723 (1999) and the like). It is reported that there are four zones indicated by No. 1 to 4 in order from the dorsum to the ventral olfactory epithelium wherein olfactory cells are distributed and each olfactory receptor is limitedly expressed in any one of the four zones (Science 286 (5440): 706-711 (1999) and the like). As it is estimated by gene analysis estimates that there are about 1,000 types of olfactory receptors, the responsiveness to specific odor molecules of the olfactory cells sampled in statistically significant number from the four zones is equivalent. Therefore, in the present invention, the responsiveness of 2,740 olfactory cells, about 2.7 times as many as 1,000 specific types of cells, was investigated. It cannot be declared that the statistical significance is maintained for all zones, as the number of types of olfactory receptor included in each zone is not clear. […] Respectively, 2, 2, 1 and 1 type(s) of genes identified by RT-PCR determined from a single cell among such olfactory cells were found and described in the present invention.
as §2

[4] = tested on: olfactory receptor car-c5; assay: Odor response of olfactory cell expressing olfactory receptor car-c5 (fura-2 calcium fluorescence); format: cell-based, mouse; details: car-c5, odor quality Spearmint; for Response at 10 μM: responders at 10 μM
Source text: as §3, §2

[5] = tested on: olfactory receptor car-b161; assay: Odor response of olfactory cell expressing olfactory receptor car-b161 (fura-2 calcium fluorescence); format: cell-based, mouse; details: car-b161, odor quality Caraway; responders at 10 μM
Source text: (§4) It is reported that, in mice, the olfactory receptor is expressed is olfactory cells and detects and identifies odor molecules (Cell 96: 713-723 (1999) and the like). It is reported that there are four zones indicated by No. 1 to 4 in order from the dorsum to the ventral olfactory epithelium wherein olfactory cells are distributed and each olfactory receptor is limitedly expressed in any one of the four zones (Science 286 (5440): 706-711 (1999) and the like). […] Respectively, 2, 2, 1 and 1 type(s) of genes identified by RT-PCR determined from a single cell among such olfactory cells were found and described in the present invention.
as §2

[6] = tested on: olfactory receptor car-b153; assay: Odor response of olfactory cell expressing olfactory receptor car-b153 (fura-2 calcium fluorescence); format: cell-based, mouse; details: car-b153, odor quality Caraway; responders at 10 μM
Source text: as §4, §2

[7] = 1 μM, cells selective for the respective carvone (FIG. 8)
[8] = of about 70-100 kinds of receptors

Row | Structure (SMILES) | Response at 1 μM [1] | Response at 10 μM [1] | number of olfactory cells responding, with higher sensitivity than others and to the same extent, to both pulegone and (−)menthone (olfactory cells) | response of olfactory receptor C257 when expressed in CHO (olfactory receptor C257) | number of selective cells responding at 1 μM (olfactory cells; [7]) | number of olfactory cells responding, with the highest sensitivity and to the same extent, to both R(−)carvone and S(+)carvone (olfactory cells) | number of olfactory cells sensitively and selectively responding (olfactory cells) | fraction of the carvone-identifying olfactory receptors responding with relatively high sensitivity (olfactory cells; [8]) | Response at 1 μM [2] | Response at 10 μM [2] | Response at 10 μM [3] | Response at 10 μM [4] | further results
1 | CC(C)[C@@H]1CC[C@@H](C)CC1=O [mn, (2S,5R)-2-isopropyl-5-methylcyclohexanone] | pu, mn > sCa, rCa | mn | 3 | – | – | – | – | – | – | – | – | – | –
2 | CC(C)=C1CC[C@@H](C)CC1=O [pu, (R)-p-menth-4(8)-en-3-one] | pu, mn > sCa, rCa | pu | 3 | – | – | – | – | – | – | – | – | – | –
3 | C=C(C)[C@@H]1CC=C(C)C(=O)C1 [rCa, R(−)-5-isopropenyl-2-methyl-2-cyclohexenon] | pu, mn > sCa, rCa | rCa | – | high sensitivity could be confirmed | four | 3 | 4 | about ⅕ | rCa | rCa | rCa | rCa | Response at 1 μM ([3]; odor molecules listed are those giving a response at 1 μM): rCa; Response at 1 μM ([4]; responders at 1 μM): rCa
4 | C=C(C)C1CCC(C)CC1O (stereo not drawn) [ip, 2-isopropenyl-5-methylcyclohexanol] | – | ip | – | – | – | – | – | – | – | – | – | – | –
5 | C=C(C)C1CC=C(C)C(=O)C1 (stereo not drawn) [carvone] | – | – | – | – | – | – | – | – | – | – | – | – | number of cells responding equally to both carvones at 1 μM (olfactory cells; 1 μM): three; kinds of olfactory receptors functioning to identify carvone (olfactory cells; corresponding to about 9.6% of about 1,000 kinds): 70-100 kinds; olfactory cells responding to carvone, share of the total (olfactory cells; of 2,740 olfactory cells): 9.6%; number of olfactory cells responding to carvone (olfactory cells; of 2,740 olfactory cells, carvone = both S(+)carvone and R(−)carvone): 263; fraction of the carvone-identifying olfactory receptors responding to both carvones equally with relatively high sensitivity (olfactory cells; [8]): about ⅖
6 | C=C(C)[C@H]1CC=C(C)C(=O)C1 [sCa, S(+)-5-isopropenyl-2-methyl-2-cyclohexenon] | pu, mn > sCa, rCa | sCa | – | not apparent | two | 3 | 18 | about ⅕ | sCa | sCa | sCa | sCa | Response at 10 μM [5]: sCa; Response at 10 μM [6]: sCa; number of selective cells responding at 10 μM (olfactory cells; 10 μM, cells selective for the respective carvone (FIG. 8)): seventeen
